# According to US8987252B2, “Aryloxy- and heteroaryloxy-substituted tetrahydrobenzazepines and use thereof to block reuptake of norepinephrine, dopamine, and serotonin” (Albany Molecular Research, Inc., priority 2007, dated 2015):
# Structures can show the parent of a compound that is named as a salt.
row,SMILES,melting point [°C]
1,"CN1CCC(Oc2ccc(Cl)cc2)c2ccc(-c3cccnn3)cc2C1 (centres unmarked) (as salt: tartrate) [Example 2, 5-(4-chlorophenoxy)-2-methyl-8-(pyridazin-3-yl)-2,3,4,5-tetrahydro-1H-benzo[c]azepine]",106 to 108
2,"CN1CCC(Oc2ccc(F)c(F)c2)c2ccc(-c3cccnn3)cc2C1 (centres unmarked) (as salt: tartrate) [Example 8, 5-(3,4-Difluorophenoxy)-2-methyl-8-(pyridazin-3-yl)-2,3,4,5-tetrahydro-1H-benzo[c]azepine]",100 to 102
3,"CN1CCC(Oc2cc(F)cc(F)c2)c2ccc(-c3cccnn3)cc2C1 (centres unmarked) (as salt: tartrate) [Example 5, 5-(3,5-difluorophenoxy)-2-methyl-8-(pyridazin-3-yl)-2,3,4,5-tetrahydro-1H-benzo[c]azepine]",94 to 96
4,"CN1CCC(Oc2ccc3ccccc3c2)c2ccc(-c3cccnn3)cc2C1 (centres unmarked) (as salt: tartrate) [Example 1, 2-methyl-5-(naphthalen-2-yloxy)-8-(pyridazin-3-yl)-2,3,4,5-tetrahydro-1H-benzo[c]azepine]",122 to 124
5,"CN1CCC(Oc2ccc(Cl)c(Cl)c2)c2ccc(-c3cccnn3)cc2C1 (centres unmarked) (as salt: tartrate) [Example 7, 5-(3,4-Dichlorophenoxy)-2-methyl-8-(pyridazin-3-yl)-2,3,4,5-tetrahydro-1H-benzo[c]azepine]",102 to 104
6,"CN1CCC(Oc2ccc(F)cc2F)c2ccc(-c3cccnn3)cc2C1 (centres unmarked) (as salt: tartrate) [Example 9, 5-(2,4-Difluorophenoxy)-2-methyl-8-(pyridazin-3-yl)-2,3,4,5-tetrahydro-1H-benzo[c]azepine]",98 to 100
7,"Cc1ccc(OC2CCN(C)Cc3cc(-c4cccnn4)ccc32)cc1 (centres unmarked) (as salt: tartrate) [Example 3, 2-methyl-8-(pyridazin-3-yl)-5-(p-tolyloxy)-2,3,4,5-tetrahydro-1H-benzo[c]azepine]",104 to 106
8,"CN1CCC(Oc2cccnc2)c2ccc(-c3cccnn3)cc2C1 (centres unmarked) (as salt: tartrate) [Example 11, 2-methyl-8-(pyridazin-3-yl)-5-(pyridin-3-yloxy)-2,3,4,5-tetrahydro-1H-benzo[c]azepine]",120 to 123
9,"CN1CCC(Oc2ccc(OC(F)(F)F)cc2)c2ccc(-c3cccnn3)cc2C1 (centres unmarked) (as salt: tartrate) [Example 4, 2-methyl-8-(pyridazin-3-yl)-5-(4-(trifluoromethoxy)phenoxy)-2,3,4,5-tetrahydro-1H-benzo[c]azepine]",104 to 106
10,"CN1CCC(Oc2ccccc2F)c2ccc(-c3cccnn3)cc2C1 (centres unmarked) (as salt: tartrate) [Example 12, 5-(2-fluorophenoxy)-2-methyl-8-(pyridazin-3-yl)-2,3,4,5-tetrahydro-1H-benzo[c]azepine]",96 to 98
11,"CN1CCC(Oc2ccccc2)c2ccc(-c3cccnn3)cc2C1 (centres unmarked) (as salt: tartrate) [Example 10, 2-methyl-5-phenoxy-8-(pyridazin-3-yl)-2,3,4,5-tetrahydro-1H-benzo[c]azepine]",98 to 100
12,"CN1CCC(Oc2ccc(C#N)cc2)c2ccc(-c3cccnn3)cc2C1 (centres unmarked) (as salt: tartrate) [Example 6, 4-(2-Methyl-8-(pyridazin-3-yl)-2,3,4,5-tetrahydro-1H-benzo[c]azepin-5-yloxy)benzonitrile]",94 to 96

# More lines, now with the values ahead:
row,melting point [°C],SMILES
1,120 to 122,"CN1CCC(Oc2ccc3cccnc3c2)c2ccc(-c3cccnn3)cc2C1 (centres unmarked) (as salt: tartrate) [Example 33, 2-methyl-8-(pyridazin-3-yl)-5-(quinolin-7-yloxy)-2,3,4,5-tetrahydro-1H-benzo[c]azepine]"
2,120 to 122,"CN1CCC(Oc2cc(F)cc(F)c2)c2ccc(-c3cccnn3)cc2C1 (centres unmarked) (as salt: tartrate) [Example 14, 5-(3,5-difluorophenoxy)-2-methyl-8-(pyridazin-3-yl)-2,3,4,5-tetrahydro-1H-benzo[c]azepine]"
3,113 to 115,"CN1CCC(Oc2cccc(C#N)c2)c2ccc(-c3cccnn3)cc2C1 (centres unmarked) (as salt: tartrate) [Example 52, 5-(3-cyanophenoxy)-2-methyl-8-(pyridazin-3-yl)-2,3,4,5-tetrahydro-1H-benzo[c]azepine]"
4,100 to 102,"CN1CCC(Oc2ccccc2Cl)c2ccc(-c3cccnn3)cc2C1 (centres unmarked) (as salt: tartrate) [Example 34, 5-(2-chlorophenoxy)-2-methyl-8-(pyridazin-3-yl)-2,3,4,5-tetrahydro-1H-benzo[c]azepine]"
5,96 to 98,"CN1CCC(Oc2cccc(F)c2)c2ccc(-c3cccnn3)cc2C1 (centres unmarked) (as salt: tartrate) [Example 13, 5-(3-fluorophenoxy)-2-methyl-8-(pyridazin-3-yl)-2,3,4,5-tetrahydro-1H-benzo[c]azepine]"
6,100 to 102,"CN1CCC(Oc2cccc3ccccc23)c2ccc(-c3cccnn3)cc2C1 (centres unmarked) (as salt: tartrate) [Example 15, 2-Methyl-5-(naphthalen-1-yloxy)-8-(pyridazin-3-yl)-2,3,4,5-tetrahydro-1H-benzo[c]azepine]"
7,108 to 110,"CN1CCC(Oc2ccccc2)c2ccc(-c3ncccn3)cc2C1 (centres unmarked) (as salt: tartrate) [Example 49, 2-Methyl-5-phenoxy-8-(pyrimidin-2-yl)-2,3,4,5-tetrahydro-1H-benzo[c]azepine]"
8,112 to 114,"CN1CCC(Oc2cccc(F)c2F)c2ccc(-c3cccnn3)cc2C1 (centres unmarked) (as salt: tartrate) [Example 51, 5-(2,3-difluorophenoxy)-2-methyl-8-(pyridazin-3-yl)-2,3,4,5-tetrahydro-1H-benzo[c]azepine]"
9,120 to 122,"CN1CCC(Oc2ccc3ccccc3c2)c2ccc(-c3cccnn3)cc2C1 (centres unmarked) (as salt: tartrate) [Example 18, 5-(naphthalen-2-yloxy)-2-methyl-8-(pyridazin-3-yl)-2,3,4,5-tetrahydro-1H-benzo[c]azepine]"
10,110 to 112,"CN1CCC(Oc2ccc(C#N)cc2)c2ccc(-c3cccnn3)cc2C1 (centres unmarked) (as salt: tartrate) [Example 53, 5-(4-cyanophenoxy)-2-methyl-8-(pyridazin-3-yl)-2,3,4,5-tetrahydro-1H-benzo[c]azepine]"
11,102 to 104,"CN1CCC(Oc2cc(F)ccc2F)c2ccc(-c3cccnn3)cc2C1 (centres unmarked) (as salt: tartrate) [Example 54, 5-(2,5-difluorophenoxy)-2-methyl-8-(pyridazin-3-yl)-2,3,4,5-tetrahydro-1H-benzo[c]azepine]"
12,104 to 106,"CN1CCC(Oc2ccccc2Cl)c2ccc(-c3cccnn3)cc2C1 (centres unmarked) (as salt: tartrate) [Example 35, 5-(2-chlorophenoxy)-2-methyl-8-(pyridazin-3-yl)-2,3,4,5-tetrahydro-1H-benzo[c]azepine]"
13,98 to 100,"CN1CCC(Oc2c(F)cccc2F)c2ccc(-c3cccnn3)cc2C1 (centres unmarked) (as salt: tartrate) [Example 55, 5-(2,6-difluorophenoxy)-2-methyl-8-(pyridazin-3-yl)-2,3,4,5-tetrahydro-1H-benzo[c]azepine]"
14,115 to 118,"Cc1ccc(-c2ccc3c(c2)CNCCC3Oc2ccccc2)nn1 (centres unmarked) (as salt: tartrate) [Example 32, 8-(6-methylpyridazin-3-yl)-5-phenoxy-2,3,4,5-tetrahydro-1H-benzo[c]azepine]"
